Assay results as given in US20200360331A1, “COMPOSITIONS COMPRISING 15-HEPE AND/OR 15-HETrE AND METHODS OF TREATING OR PREVENTING CARDIOMETABOLIC DISEASE, METABOLIC SYNDROME, AND/OR RELATED DISEASES” (Afimmune Limited, priority 2019, published 2020).
Entries after “also recorded” stand apart in the source; their conditions may differ.

How the values were obtained:
[1] = UUO study: body weight, kidney weight, general condition; format: in vivo; settings: UUO mice
Method: UUO Surgery: On day 0 of the study, UUO surgery was performed on mice under pentobarbital sodium anesthesia. The mouse's hair was first shaved and then abdomen cut open to exteriorize the mouse's left ureter. The ureter was ligated 4-0 nylon sutures at two points. The mouse's peritoneum and skin were then closed with sutures, and the mouse transferred to a clean cage until recovered from the anesthesia. Sham operated mice had their left ureter exposed but not ligated. […]
Animals: Seven-week-old female C57BL/6 mice (i.e., animals) were obtained from Japan SLC, Inc. (Japan) and were housed and fed with a normal diet (CE-2; CLEA Japan, Japan) under controlled conditions. The animals were maintained in a specific-pathogen free (SPF) facility under controlled conditions of temperature (e.g., 23±2° C.), humidity (e.g., 45±10%), lighting (e.g., 12-hour artificial light and dark cycles; light from 8:00 to 20:00) and air exchange. A high pressure was maintained in the experimental room to prevent contamination of the facility. The animals were housed in TPX cages (CLEA Japan) with a maximum of 4 mice per cage. Sterilized Paper-Clean (Japan SLC) was used for bedding and replaced once a week. Sterilized solid normal diet was provided ad libitum, being placed in a metal lid on the top of the cage. Pure water was also provided ad libitum from a water bottle equipped with a rubber stopper and a sipper tube. Water bottles were replaced once a week, cleaned, and sterilized in an autoclave and reused. Mice were identified by ear punch and each cage was labeled with a specific identification code.
Animal Monitoring and Sacrifice: The viability, clinical signs and behavior for the mice were monitored daily. Individual body weight was measured daily before treatment during the treatment period. […] The animals were sacrificed by exsanguination through direct cardiac puncture under isoflurane anesthesia (Pfizer Inc.) at Day 14.

[2] = tested on: TIMP-1; test: BDL study: quantitative RT-PCR of liver, TIMP-1; format: in vivo, C57BL/6J mice; settings: BDL mice liver
Method: (§1) Quantitative RT-PCR: Total ribonucleic acid (RNA) was extracted from liver samples using RNAiso (Takara Bio, Japan) according to the manufacturer's instructions. One μg of RNA was reverse-transcribed using a reaction mixture containing 4.4 mM magnesium chloride (MgCl2) (F. Hoffmann-La Roche, Switzerland), 40 U RNase inhibitor (Toyobo, Japan), 0.5 mM dNTP (Promega, USA), 6.28 μM random hexamer (Promega), 5× first strand buffer (Promega), 10 mM dithiothreitol (Invitrogen, USA) and 200 U MMLV-RT (Invitrogen) in a final volume of 20 μL. The reaction was carried out for 1 hour at 37° C., followed by 5 minutes at 99° C. Real-time PCR was performed using real-time PCR DICE and TB Green™ Premix Ex Taq™ II (Takara Bio). To calculate the relative mRNA expression level, the expression of each gene (α-SMA, TIMP-1, TGF-β and Collagen Type 1) was normalized to that of reference gene 36B4 (gene symbol: Rplp0). Information regarding the PCR-primer sets and the plate layout are described in Tables 8 and 9.

[3] = tested on: TβR-II (type II TGF-β receptor); test: Sucrose density gradient analysis in Mv1Lu cells, TβR-II; format: cell-based, mink
Method: Sucrose gradient ultracentrifugation and confocal microscopy were used to identify 15-HEPE induced microdomain translocation of TGF-β receptors by sucrose. Sucrose density gradient analysis of TGF-β receptors was conducted in the plasma membranes of Mv1Lu cells (mink lung epithelial cell) treated with 100 μM of 15-HEPE and an equal volume of DMSO (dimethyl sulfoxide) at 37° C. for 0, 1, 4, and 24 hours, and the cell lysates from these treated cells were subjected to sucrose density gradient ultracentrifugation. The sucrose gradient fractions were then analyzed by Western blot analysis using anti-TβR-I (type I TGF-β receptor), anti-TβR-II (type II TGF-β receptor), anti-TβR-III (type III TGF-β receptor, betaglycan), anti-EGFR (epidermal growth factor receptor), and anti-caveolin-1 antibodies. The lipid raft/caveolae, and non-lipid raft microdomain localization of TβR-I, TβR-II, TβR-III, EGFR and caveolin-1 in the plasma membrane of untreated cells or cells treated with 15-HEPE were assessed to determine the effects of 15-HEPE on the membrane microdomain localization of the TGF-β receptors.
A 15-HEPE sucrose density gradient analysis of TGF-β receptors was conducted in the plasma membranes of mink lung epithelial cell (Mv1 Lu) cells treated with 100 μM of 15-HEPE and an equal volume of dimethyl sulfoxide (DMSO) at 37° C. for 0, 1, 4, and 24 hours, and the cell lysates from these treated cells were subjected to sucrose density gradient ultracentrifugation. The sucrose gradient fractions were then analyzed by Western blot analysis using anti-TβR-I (type I TGF-β receptor—FIG. 18C), anti-TβR-II (type II TGF-β receptor—FIG. 18D), anti-TβR-III (type III TGF-β receptor, betaglycan—FIG. 18E), anti-EGFR (epidermal growth factor receptor—FIG. 18F), and anti-caveolin-1 antibodies (FIG. 18G). Fractions 4 to 5 contained lipid rafts/caveolae whereas fractions 7-10 were non-lipid raft fractions. […] Stars (★) indicate 15-HEPE increased abundance of TβR-I (24 hours) in the fraction in comparison with that of the control and shorter treatment durations (FIG. 18C). […] The triangles (▾) indicate translocation and decreased abundance of TβR-II in the fraction in comparison with control cells (FIG. 18D).

[4] = tested on: Collagen Type 1; test: BDL study: quantitative RT-PCR of liver, Collagen Type 1; format: in vivo, C57BL/6J mice; settings: BDL mice liver
Method: as §1

[5] = 50 mg/kg PO QD Day 0-13, Day 14
[6] = 500 mg/kg PO QD Day 0-13, Day 14
[7] = relative mRNA normalized to 36B4, 50 mg/kg PO QD Day 0-13
[8] = relative mRNA normalized to 36B4, 250 mg/kg PO QD Day 0-13
[9] = relative mRNA normalized to 36B4, 500 mg/kg PO QD Day 0-13

Which “Left Kidney Weight” value [1, 5] does the source give for CC/C=C\CC(O)/C=C/C=C\C/C=C\C/C=C\CCCC(=O)O (centres unmarked) [DS102, 15-hydroxy-eicosa-5Z,8Z,11Z,13E,17Z-pentaenoic acid] here?
The value was 469 ± 60 mg.

And the “Right Kidney Weight” value [1, 5]?
Its value is 133 ± 10 mg.

And the “Left Kidney Weight” value [1, 6]?
The value was 487 ± 108 mg.

What about the “Right Kidney Weight” value [1, 6] of the same compound?
Its value is 136 ± 6 mg.

What about the “TIMP-1 mRNA expression level compared with the Vehicle group” value ([2]; 500 mg/kg) of the same compound?
The value was “tended to decrease; also recorded: trend approaching significance”.

And the “TIMP-1 mRNA expression level vs Vehicle group” value ([2]; DS102 treatment groups)?
Its value is “no significant differences”.

What about the TIMP-1 gene expression [2, 7] of the same compound?
The TIMP-1 gene expression was 43.82 ± 26.19.

And the TIMP-1 gene expression [2, 8]?
Its TIMP-1 gene expression is 30.65 ± 16.80.

And the TIMP-1 gene expression [2, 9]?
The TIMP-1 gene expression was 16.09 ± 10.16.

What about the TβR-II translocation ([3]; Mv1Lu cells, 100 μM, 1 to 4 hours) of the same compound?
The TβR-II translocation was “induced TβR-II translocation”.

And the TβR-II degradation ([3]; Mv1Lu cells, 100 μM, 24 hours)?
The TβR-II degradation was “induce degradation”.

What about the “translocation and degradation of type II TGF-β receptors” value ([3]; summary, free acid or ethyl ester form) of the same compound?
Its value is “induced translocation and degradation of type II TGF-β receptors”.

What about the “Collagen Type 1 mRNA expression level compared with the Vehicle group” value ([4]; 500 mg/kg) of the same compound?
The value was “tended to decrease; also recorded: trend approaching significance”.

And the “Collagen Type 1 mRNA expression level vs Vehicle group” value ([4]; DS102 treatment groups)?
Its value is “no significant differences”.

What about the “Collagen Type 1 gene expression” value [4, 7] of the same compound?
The value was 4.94 ± 2.76.

And the “Collagen Type 1 gene expression” value [4, 8]?
The value was 4.21 ± 1.90.

And the “Collagen Type 1 gene expression” value [4, 9]?
The value was 2.51 ± 1.39.
